Data on 75 compounds can be found in PubChem BioAssay AID179 (DTP/NCI, 2004).

Active and inactive are the calls of the source.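 How the source made its calls: active means compounds giving half or more protection of infected cells from virus-caused growth loss, again on retest; inactive means the rest.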

This test relates to CEM cells HIV-1 protection, formazan growth assay. The test is described as follows: NCI AIDS Antiviral Assay. Particulars: for IC50: measured here: growth of uninfected CEM cells. A digest of the protocol: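 Protection of CEM cells against HIV-1 measured as cell growth via soluble formazan read-out, with five concentrations tested on both infected and uninfected cells; failure to protect may reflect toxicity.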

As to `c1ccc2[nH]c(SSc3nc4ccccc4[nH]3)nc2c1`, the half-maximal effective concentration (EC50) is greater than 107 µM and the IC50 was 89.1 µM.
In the same order, the values of `CCOC(=O)C(Cc1ccccc1)C(=O)OCC` are greater than 105 µM and greater than 105 µM.
In the case of `COC(=O)C1OC2(CCCC3CC32)O[C@H]1C(=O)OC` (stereo not given in full), the outcome was inactive.
Regarding `c1ccc(-c2csc3n4ccccc4c[n+]23)cc1`, the result was inactive.
Consider `CC(C)SC(NC(=O)C1C(C)(C)CCC1(C)C)C(=O)O` (stereo not given), for which the EC50 is greater than 200 µM and the IC50 was greater than 200 µM.
For the compound `COc1cc(-c2cc(=O)c3ccc(O)cc3o2)cc(OC)c1OC`, the EC50 was greater than 200 µM and the half-inhibitory concentration (IC50) was greater than 200 µM.
On to `C=C(CO[Si](C)(C)C(C)(C)C)C(C)=O`, for which the outcome was inactive.
With `COC1CCC(OS(C)(=O)=O)C(CO)O1` (stereo not given), the outcome was inactive.
With `N#Cc1c(N2CCCC2)nsc1NCc1ccccc1`, the EC50 was greater than 200 µM and the IC50 was greater than 200 µM.
In the case of `[O-]c1c2cc(-[n+]3c(-c4ccccc4)cc(-c4ccccc4)cc3-c3ccccc3)cc1CO[C@@H](c1ccccc1)[C@H](c1ccccc1)OCc1cccc(n1)CO[C@@H](c1ccccc1)[C@H](c1ccccc1)OC2`, the EC50 was greater than 1 µM and the IC50 was found to be 0.0794 µM.
Regarding `COc1cccc(C(=O)CC(c2ccccc2)C(C)(C)[N+](=O)[O-])c1` (stereo not given), the EC50 was greater than 200 µM and the 50% inhibitory concentration (IC50) worked out at 95.5 µM.
As for `O=C(CC(c1ccccc1)C(Sc1ccccc1)(Sc1ccccc1)Sc1ccccc1)c1ccccc1` (stereo not given), the EC50 was greater than 100 µM and the IC50 was greater than 100 µM.
Take `OCC(c1ccccc1)[P+](c1ccccc1)(c1ccccc1)c1ccccc1` (stereo not given): the EC50 was greater than 200 µM and the half-maximal inhibitory concentration (IC50) was found to be 11.2 µM.
The matching figures for `CC(=O)Nc1ccc(SS(=O)(=O)c2ccc(NC(C)=O)cc2)cc1`: greater than 490 µM and 204 µM.
As for `CN(CC(=O)O)S(=O)(=O)c1ccc(F)cc1`, the result was inactive.
In the case of `CCN(CC)C(=S)SS(=O)(=O)c1cccc(N)c1`, the EC50 is greater than 200 µM and the concentration for half-maximal inhibition (IC50) was greater than 200 µM.
`O=C(NC(Nc1ccc(F)cc1)(C(F)(F)F)C(F)(F)F)C(C(F)(F)F)C(F)(F)F`: the result was inactive.
Consider `CC1SCc2nc3ccccc3n21` (stereo not given), for which the EC50 is greater than 200 µM and the concentration for half-maximal inhibition (IC50) was greater than 200 µM.
Consider `O=C(NCCc1c[nH]c2ccccc12)C1CC1`, for which the EC50 was greater than 200 µM and the 50% inhibitory concentration (IC50) is 110 µM.
The matching figures for `CC(=O)N(CC1CCCN(C)C1)C12CC3CC(CC(C3)C1)C2` (stereo not given): greater than 117 µM and greater than 117 µM.
In the same order, the values of `O=c1/c(=C/c2ccccc2F)sc2nc3ccccc3n12` are greater than 1.82 µM and greater than 1.82 µM.
On to `COC(=O)[C@]1(C)CCC[C@@]2(C)C1CC[C@@]13C=C(C(C)C)[C@@H](CC1=O)CC23` (stereo not given in full), for which the EC50 is greater than 200 µM and the half-inhibitory concentration (IC50) came out at 36.3 µM.
For the compound `O=C(c1ccccc1)C1(C(=O)c2ccccc2)/C(=N\O)C2CCC1C2` (stereo not given), the EC50 was greater than 53.7 µM and the 50% inhibitory concentration (IC50) worked out at 20.9 µM.
With `O=Nc1ccc(N=O)cc1`, the EC50 is greater than 200 µM and the IC50 is greater than 200 µM.
Take `Cc1cc(-c2ccc(C(=O)C(Cl)(Cl)Cl)[nH]2)on1`: the EC50 is greater than 200 µM and the half-inhibitory concentration (IC50) was determined as 17.8 µM.
In the case of `NC(=O)CCCC(NCc1c2ccccc2nc2ccccc12)C(=O)O` (stereo not given), the result was inactive.
As for `COc1ccc(/C=C2/CSCC3=C2NC(=S)NC3c2ccc(OC)c(OC)c2OC)c(OC)c1OC` (stereo not given), the EC50 is greater than 200 µM and the concentration for half-maximal inhibition (IC50) came to 8.51 µM.
Consider `COc1ccc2nc3cc([N+](=O)[O-])ccc3c(NCCCCCN(C)C)c2c1`, for which the EC50 was greater than 2 µM and the half-inhibitory concentration (IC50) worked out at 0.138 µM.
Consider `O=C(OC1C#CCSCC#C/C=C\1)c1cnc2ccccc2n1` (stereo not given), for which the EC50 was greater than 200 µM and the IC50 turned out to be 33.1 µM.
Consider `O=C1NC2C3CC(c4ccccc43)C12` (stereo not given), for which the EC50 was greater than 832 µM and the 50% inhibitory concentration (IC50) is greater than 832 µM.
For `CCCCN(CCCC)c1ccc(/C=C2/C=Cc3ccccc32)cc1`, the EC50 was greater than 11.2 µM and the 50% inhibitory concentration (IC50) was greater than 11.2 µM.
Consider `Clc1ccc(CCn2cncn2)cc1`, for which the EC50 was greater than 537 µM and the 50% inhibitory concentration (IC50) was 525 µM.
As to `CC(=O)OC1CC2C(C)(C)CCC[C@]2(C=O)C2=C1C(O)=C(C(C)C)C(=O)C2=O` (stereo not given in full), the outcome was inactive.
In the case of `CC(=O)OC(OC(C)=O)n1cc(C=O)c2ccccc21`, the EC50 is greater than 200 µM and the half-inhibitory concentration (IC50) is greater than 200 µM.
Turning to `Cc1cc(NC2=CC(=O)C(=O)c3ccccc32)no1`, the EC50 was greater than 200 µM and the IC50 was 5.89 µM.
In the case of `O=C(CC(=O)N1N=C(c2ccccc2)C(N=Nc2ccccc2[N+](=O)[O-])C1=O)Nc1ccccc1F` (stereo not given), the EC50 is greater than 27.5 µM and the IC50 was greater than 27.5 µM.
Regarding `CCOC(=O)N1C2C=CC(C2)N1C(=O)Nc1ccc(Cl)cc1` (stereo not given), the EC50 was greater than 200 µM and the half-inhibitory concentration (IC50) came to 170 µM.
On to `CCCc1cc(=O)oc2c3c(c4c(c12)OC(C)(C)C=C4)O[C@H](C)[C@@H](C)[C@H]3O[Si](C)(C)C(C)(C)C`, for which the EC50 was greater than 200 µM and the half-inhibitory concentration (IC50) was greater than 200 µM.
Turning to `CC(=O)c1c(O)cc(O)cc1-c1cc(=O)c2c(O)ccc(C(C)=O)c2o1`, the EC50 was greater than 200 µM and the IC50 was found to be 170 µM.
With `COCCOC(C)C(=O)C(O)S(=O)(=O)O` (stereo not given), the EC50 was greater than 200 µM and the IC50 is 186 µM.
The matching figures for `COc1cccc(NC(=O)/C(CC(=O)CC(c2ccccc2)c2c(O)c3ccccc3oc2=O)=N\NC(C)(C)C)c1OC` (stereo not given): greater than 85.1 µM and 70.8 µM.
`C=C1CCC([N+](=O)[O-])[C@](C)(N=O)CC[C@@H]2C1CC2(C)C` (stereo not given in full): the EC50 was greater than 200 µM and the IC50 worked out at 17 µM.
On to `CC1=N[C@@](C)(C2CC3C=CC2C3=O)COC1=O` (stereo not given in full), for which the EC50 is greater than 288 µM and the half-maximal inhibitory concentration (IC50) was greater than 288 µM.
For the compound `CC1C[C@@H]2OC(=O)C(C)[C@H]2C[C@]2(C)C(O)CC(O)C12` (stereo not given in full), the EC50 was greater than 933 µM and the IC50 was determined as 47.9 µM.
The matching figures for `CCCO/S(=N\S(=O)(=O)c1ccccc1)c1ccccc1[N+](=O)[O-]` (stereo not given): greater than 676 µM and greater than 676 µM.
`COc1cc(-c2cc(=O)c3cc(C)c(C)c(C(=O)O)c3o2)cc(OC)c1OC`: the outcome was inactive.
With `Cn1c(N)c(C(N)=O)[nH]c1=S`, the EC50 is greater than 200 µM and the half-inhibitory concentration (IC50) is greater than 200 µM.
Turning to `O=C1OC2(CC1C1(O)C3CC4CC(C3)CC1C4)C1CC3CC(C1)CC2C3` (stereo not given), the EC50 is greater than 100 µM and the IC50 turned out to be 38.9 µM.
`NCP(=O)(O)OCC(=O)O`: the result was inactive.
On to `Nc1ccc2c(c1)C1Oc3ccccc3CC1CO2` (stereo not given), for which the EC50 is greater than 200 µM and the concentration for half-maximal inhibition (IC50) was found to be 110 µM.
For `O=C(O)C1CCN1Cc1ccc2ccccc2c1O` (stereo not given), the EC50 is greater than 200 µM and the IC50 was determined as 195 µM.
On to `CC1=C(C(=O)NCc2ccccc2)C(c2ccc([N+](=O)[O-])cc2)C(C(=O)NCc2ccccc2)=C(C)N1`, for which the EC50 is greater than 14.5 µM and the concentration for half-maximal inhibition (IC50) is greater than 14.5 µM.
Turning to `O=[N+]([O-])c1ccc2[nH]nc(OCc3ccccc3Cl)c2c1`, the EC50 was greater than 129 µM and the IC50 was greater than 129 µM.
For `CCCCc1ccc2[n+](c1)C(C(=O)OCC)=PC2` (stereo not given), the EC50 was greater than 178 µM and the 50% inhibitory concentration (IC50) was found to be 145 µM.
Consider `Cc1ccc(S(=O)(=O)N2CCC(C(=O)O)=Cc3c2[nH]c(=O)n(-c2ccccc2)c3=O)cc1`, for which the EC50 was greater than 288 µM and the IC50 was greater than 288 µM.
Take `COc1ccc(C2c3cn[nH]c3CC3CCCCC32)cc1` (stereo not given): the EC50 is greater than 200 µM and the IC50 came out at 34.7 µM.
Take `C#CC(O)/C=C/CCCCCCCCC/C=C/CCCCCCCCC/C=C/C(O)C#C` (stereo not given): the outcome was inactive.
Regarding `C[C@]12CCC(=O)C=C1CC[C@@H]1C2CC[C@]2(C)Nc3[nH]ncc3CC12` (stereo not given in full), the result was inactive.
For `O=C(CN1CCCC1=O)CS(=O)(=O)c1ccccc1`, the EC50 was greater than 891 µM and the 50% inhibitory concentration (IC50) was greater than 891 µM.
On to `O=C1c2cc(Cl)ccc2-n2c(noc2=O)C2CSCN12` (stereo not given), for which the EC50 was greater than 200 µM and the IC50 is greater than 200 µM.
Turning to `CCC1(N=[N+]=[N-])C(=O)c2ccccc2N(C)C1=O` (stereo not given), the EC50 was greater than 200 µM and the IC50 is greater than 200 µM.
In the case of `O=C1c2ccccc2C(=O)c2c1c(-c1ccccc1)cc(CCO)c2-c1ccccc1`, the outcome was inactive.
`CC(Oc1ccc(OCC2CCCCC2)cc1)C(=O)NCc1ccco1` (stereo not given): the EC50 was greater than 28.2 µM and the IC50 was greater than 28.2 µM.
Turning to `CN(C)c1ccc2c(c1)-c1cc(N(C)C)ccc1C2=CC=C1C(=O)c2ccccc2C1=O`, the EC50 is greater than 17 µM and the IC50 was greater than 17 µM.
For the compound `O/N=C(\CSSC/C(=N/O)c1ccc(Cl)cc1)c1ccc(Cl)cc1`, the EC50 was greater than 200 µM and the IC50 is 10.7 µM.
In the same order, the values of `O=NC1(c2ccccc2)CCCCC1[N+](=O)[O-]` (stereo not given) are greater than 200 µM and greater than 200 µM.
Consider `CSC1=C(C)S/C(=C\c2ccc(/C=C3\SC(C)=C(SC)S3)cc2)S1`, for which the outcome was inactive.
As to `C/C(=N\[N+](C)(C)C)c1ccc(C)c(C)c1`, the EC50 is greater than 200 µM and the concentration for half-maximal inhibition (IC50) was 102 µM.
As for `CC(C)(Cc1ccccc1)C(=C=C=C=C(c1ccccc1)C(C)(C)Cc1ccccc1)c1ccccc1`, the EC50 is greater than 46.8 µM and the IC50 was greater than 46.8 µM.
Turning to `Cc1nn(C2OC(CO)C(O)C(F)C2O)c(=O)[nH]c1=O` (stereo not given), the EC50 was greater than 200 µM and the concentration for half-maximal inhibition (IC50) is greater than 200 µM.
As for `N#[N+]C1=NC2C(=O)NC=NC2=N1` (stereo not given), the EC50 is greater than 83.2 µM and the 50% inhibitory concentration (IC50) is greater than 83.2 µM.
Consider `N/C(=N/N=C/c1cc(Cl)ccc1O)N/N=C\c1cc(Cl)ccc1O`, for which the EC50 is greater than 2 µM and the concentration for half-maximal inhibition (IC50) was determined as 1 µM.
As to `O=[N+]([O-])c1ccccc1S(=O)(=O)c1cccc2c1NCCC2`, the concentration giving a half-maximal response (EC50) was 3.47 µM and the 50% inhibitory concentration (IC50) is 38 µM.
On to `O=[N+]([O-])c1ccc(C2Nc3cc(Cl)c(Cl)cc3S(=O)(=O)N2O)cc1` (stereo not given), for which the EC50 was greater than 93.3 µM and the IC50 was 64.6 µM.
As for `Cc1ccc2c(c1-c1ccccc1)C(=O)OC2`, the result was inactive.

What is called EC50 is the concentration needed to bring the measured effect to its halfway point. The IC50 is the concentration that inhibits the measured activity by half. Read a high IC50 as weaker potency.
